Results on 11 compounds are retold here after ChEMBL document CHEMBL4602737, “Structure-Guided Identification of DNMT3B Inhibitors” (ACS Med Chem Lett, 2020).

Series [1] concerns the target T1, DNA (cytosine-5)-methyltransferase 3B (Homo sapiens, UniProt Q9UBC3). Nature of the series: Inhibition of human recombinant DNMT3B expressed in baculovirus infected insect cells using CpG site containing internally quenched hairpin oligonucleotide DNA substrate and SAM incubated for 30 mins by kinetic fluorogenic assay.
Series [2] concerns the target DNA (cytosine-5)-methyltransferase 1 (Homo sapiens, UniProt P26358). In words: Inhibition of human recombinant DNMT1 expressed in baculovirus infected insect cells using CpG site containing internally quenched hairpin oligonucleotide DNA substrate and SAM incubated for 30 mins by kinetic fluorogenic assay.
The nature of series [3]: Toxicity in mouse. Format: organism-based. The following applies: in vivo.
In series [4] the target is T1, DNA (cytosine-5)-methyltransferase 3B. In words: Inhibition of human recombinant DNMT3B expressed in baculovirus infected insect cells by DRONE assay.
Series [5] can be described thus: Cytotoxicity in African green monkey Vero cells assessed as reduction in cell viability. Format: cell-based. The following applies: chlorocebus sabaeus.

Chain of DNA (cytosine-5)-methyltransferase 1 (P26358 whole entry): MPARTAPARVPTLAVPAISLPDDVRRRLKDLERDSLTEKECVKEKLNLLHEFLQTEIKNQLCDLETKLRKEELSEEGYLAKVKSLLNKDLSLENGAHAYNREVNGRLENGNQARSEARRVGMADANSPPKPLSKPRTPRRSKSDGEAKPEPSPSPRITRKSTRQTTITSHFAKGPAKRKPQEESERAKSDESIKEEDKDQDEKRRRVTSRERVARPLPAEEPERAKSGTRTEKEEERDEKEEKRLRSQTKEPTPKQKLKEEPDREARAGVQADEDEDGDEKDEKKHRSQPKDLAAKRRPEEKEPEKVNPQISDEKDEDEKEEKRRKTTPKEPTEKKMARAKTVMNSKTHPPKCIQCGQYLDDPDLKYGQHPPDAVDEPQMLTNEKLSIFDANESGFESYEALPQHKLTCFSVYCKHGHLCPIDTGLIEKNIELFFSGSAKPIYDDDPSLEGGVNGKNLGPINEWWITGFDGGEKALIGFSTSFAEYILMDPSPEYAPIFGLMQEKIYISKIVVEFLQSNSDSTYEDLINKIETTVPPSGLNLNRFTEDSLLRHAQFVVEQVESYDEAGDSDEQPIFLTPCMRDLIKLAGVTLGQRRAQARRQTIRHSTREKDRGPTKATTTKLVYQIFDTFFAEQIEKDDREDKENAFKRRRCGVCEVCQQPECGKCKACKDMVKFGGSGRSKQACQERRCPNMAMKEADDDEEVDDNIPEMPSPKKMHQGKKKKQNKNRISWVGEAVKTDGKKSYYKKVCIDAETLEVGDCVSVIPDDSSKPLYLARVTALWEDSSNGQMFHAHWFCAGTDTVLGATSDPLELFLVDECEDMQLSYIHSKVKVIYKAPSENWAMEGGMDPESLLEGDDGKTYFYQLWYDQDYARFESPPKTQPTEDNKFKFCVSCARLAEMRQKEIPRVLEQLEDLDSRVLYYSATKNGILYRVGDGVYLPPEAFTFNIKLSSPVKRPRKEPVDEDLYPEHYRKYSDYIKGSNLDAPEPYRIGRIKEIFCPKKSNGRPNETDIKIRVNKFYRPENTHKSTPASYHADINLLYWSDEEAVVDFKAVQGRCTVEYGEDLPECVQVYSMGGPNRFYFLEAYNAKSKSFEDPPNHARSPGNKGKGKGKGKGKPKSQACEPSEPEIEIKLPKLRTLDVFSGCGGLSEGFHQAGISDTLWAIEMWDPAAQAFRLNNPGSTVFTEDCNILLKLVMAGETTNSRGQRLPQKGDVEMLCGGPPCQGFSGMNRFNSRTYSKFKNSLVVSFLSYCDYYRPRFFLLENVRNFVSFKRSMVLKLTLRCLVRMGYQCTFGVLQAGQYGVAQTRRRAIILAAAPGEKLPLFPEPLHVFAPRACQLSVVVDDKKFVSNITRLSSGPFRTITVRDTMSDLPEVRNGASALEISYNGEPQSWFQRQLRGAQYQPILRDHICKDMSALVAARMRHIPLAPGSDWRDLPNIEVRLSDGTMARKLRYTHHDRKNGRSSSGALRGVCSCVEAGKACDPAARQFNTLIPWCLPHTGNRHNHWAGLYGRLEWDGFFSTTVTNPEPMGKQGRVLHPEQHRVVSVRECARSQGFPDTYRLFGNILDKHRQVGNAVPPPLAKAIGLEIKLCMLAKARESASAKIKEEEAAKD

For `CN(Cc1ccc2cc[nH]c2c1)C(=O)CCc1cccc(-c2cc3ccccc3[nH]2)c1`, the concentration for half-maximal inhibition (IC50) result in series [1] is reported as “Not Active”. With `CN(Cc1ccc2cn[nH]c2c1)C(=O)CCc1cccc(-c2cc3ccccc3[nH]2)c1`, the IC50 result in series [1] is “Not Active”. As for `O=C(CSc1ncnc2sccc12)N1CCN(Cc2cc(=O)n3ccsc3n2)CC1`, the IC50 in series [2] was 27.2 µM.

For the compound `C[C@@H]1O[C@@H](CC(=O)O)CC2=C1C(=O)c1c(O)cccc1C2=O` [NANAFROCIN], in series [3], the LD50 came to 28 mg/kg. Further, the half-maximal inhibitory concentration (IC50) in series [4] amounted to 0.73 µM; in series [1] (read-out: IC50) it was 1.5 µM. The cytotoxic concentration (CC50) in series [5] amounted to 0.7 µM.

In the case of `CN(Cc1ccc2cc[nH]c2c1)C(=O)CCc1cccc(-c2nc3ccccc3[nH]2)c1`, in series [1], the IC50 result is on record as “Not Active”. Take `CN(Cc1ccc2[nH]ccc2c1)C(=O)CCc1cccc(-c2nc3ccccc3[nH]2)c1`: the IC50 entry in series [1] was “Not Active”. Take `O=C(O)[C@H](Cc1c[nH]c2ccccc12)N1C(=O)c2ccccc2C1=O`: the IC50 in series [1] (read-out: IC50) was 0.9 µM. With `CN(Cc1ccc2[nH]ccc2c1)C(=O)CCc1cccc(-c2cc3ccccc3[nH]2)c1`, in series [1], the concentration for half-maximal inhibition (IC50) result was “Not Active”. As for `O=C(CCc1cccc(-c2nc3ccccc3[nH]2)c1)NCc1ccc2[nH]ncc2c1`, in series [1], the concentration for half-maximal inhibition (IC50) entry is “Not Active”. Same read-out and setting: for `CN(Cc1ccc2cn[nH]c2c1)C(=O)CCc1cccc(-c2nc3ccccc3[nH]2)c1` the value was “Not Active”. Turning to `Cc1ccc2c(=O)c(-c3nc(-c4cccc(F)c4)no3)cn(CC(=O)Nc3ccc4c(c3)OCO4)c2n1`, the IC50 in series [2] is 28.5 µM.

As a reminder, the IC50 is the midpoint of a concentration-inhibition curve. The LD50 is the dose expected to kill half of the subjects tested. One may read the CC50 as the concentration at which the toxic effect on the cells reaches its halfway point.
